Measurements as given in the supplement of paper PMC11451515.

Key:
Settings in all cases: 48 h
NOMO1 [1] = assay: AUC of viability dose-response curve (% viability x log10 dose units); higher = less sensitive
Summary of the method: (§1)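 Leukemia cells adapted to each medium were seeded in 1536-well plates (500 or 1000 cells/well). They were dosed with library compounds in DMSO at 11 threefold doses, 47 μM to 0.79 nM, for 48 h at 37°C. CellTiter-Glo One luminescence was normalised per plate to DMSO and cell-free wells. Area under the curve was integrated by trapezoidal rule over log10 doses on a four-parameter log-logistic fit; curves exceeding full viability were scaled and curves failing quality control removed.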

P12-Ichikawa [2] = assay: as above
Summary of the method: as §1

SEM cells [3] = assay: as above
Summary of the method: as §1

NOMO1 [4] = assay: cell viability relative to DMSO control; higher = less cytotoxic
Summary of the method: (§2)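 Three leukemia lines were tested: NOMO1 and SEM at 500 cells/well and P12-Ichikawa at 1000 cells/well. Each was adapted for at least four passages in each medium and seeded in 5 μl in 1536-well plates, and library compounds in DMSO were pin-dosed from 47 μM to 0.79 nM in 11 threefold steps. After 48 h at 37°C, CellTiter-Glo One luminescence was read. Viability is a percentage relative to DMSO wells on each plate, with cell-free wells as background.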

P12-Ichikawa [5] = assay: as above
Summary of the method: as §2

SEM cells [6] = assay: as above
Summary of the method: as §2

CCN(C)C(=O)Oc1cccc([C@H](C)N(C)C)c1
AUC of viability dose-response curve
Settings	NOMO1 [1]	P12-Ichikawa [2]	SEM cells [3]
HPLM + 10% dialyzed FBS	451	452	463
RPMI 5 mM glucose + 10% FBS	468	458	432
RPMI 5 mM glucose + 10% dialyzed FBS	474	465	452

cell viability [%]
Settings	NOMO1 [4]	P12-Ichikawa [5]	SEM cells [6]
HPLM + 10% dialyzed FBS, 0.000781 µM	110	117	101
HPLM + 10% dialyzed FBS, 0.00234 µM	117	105	108
HPLM + 10% dialyzed FBS, 0.00702 µM	124	104	104
HPLM + 10% dialyzed FBS, 0.0211 µM	128	114	125
HPLM + 10% dialyzed FBS, 0.0632 µM	102	106	110
HPLM + 10% dialyzed FBS, 0.19 µM	110	105	119
HPLM + 10% dialyzed FBS, 0.569 µM	122	107	97.4
HPLM + 10% dialyzed FBS, 1.71 µM	95.3	107	105
HPLM + 10% dialyzed FBS, 5.12 µM	99.9	99.5	99.2
HPLM + 10% dialyzed FBS, 15.4 µM	109	96.4	101
HPLM + 10% dialyzed FBS, 46.1 µM	106	104	105
RPMI 5 mM glucose + 10% FBS, 0.000781 µM	95.9	106	121
RPMI 5 mM glucose + 10% FBS, 0.00234 µM	102	104	114
RPMI 5 mM glucose + 10% FBS, 0.00702 µM	99.3	–	108
RPMI 5 mM glucose + 10% FBS, 0.0211 µM	105	102	111
RPMI 5 mM glucose + 10% FBS, 0.0632 µM	108	99.7	122
RPMI 5 mM glucose + 10% FBS, 0.19 µM	94.4	102	90.1
RPMI 5 mM glucose + 10% FBS, 0.569 µM	108	113	95.9
RPMI 5 mM glucose + 10% FBS, 1.71 µM	111	101	95.9
RPMI 5 mM glucose + 10% FBS, 5.12 µM	92.6	95.6	85.7
RPMI 5 mM glucose + 10% FBS, 15.4 µM	112	102	105
RPMI 5 mM glucose + 10% FBS, 46.1 µM	98.4	99.2	99.5
RPMI 5 mM glucose + 10% dialyzed FBS, 0.000781 µM	101	103	124
RPMI 5 mM glucose + 10% dialyzed FBS, 0.00234 µM	98.3	102	100
RPMI 5 mM glucose + 10% dialyzed FBS, 0.00702 µM	104	99.3	111
RPMI 5 mM glucose + 10% dialyzed FBS, 0.0211 µM	111	98.7	121
RPMI 5 mM glucose + 10% dialyzed FBS, 0.0632 µM	109	103	110
RPMI 5 mM glucose + 10% dialyzed FBS, 0.19 µM	97.7	104	109
RPMI 5 mM glucose + 10% dialyzed FBS, 0.569 µM	91.6	104	121
RPMI 5 mM glucose + 10% dialyzed FBS, 1.71 µM	87.1	98.2	101
RPMI 5 mM glucose + 10% dialyzed FBS, 5.12 µM	105	93.4	111
RPMI 5 mM glucose + 10% dialyzed FBS, 15.4 µM	98.5	94.7	110
RPMI 5 mM glucose + 10% dialyzed FBS, 46.1 µM	110	86.7	95.6

COC1=CC2=C(C=C1OC)[C@H]3[C@@H](CO2)OC4=C(C=CC5=C4\C=C/C(C)(C)O5)C3=O
AUC of viability dose-response curve
Settings	NOMO1 [1]	P12-Ichikawa [2]	SEM cells [3]
HPLM + 10% dialyzed FBS	402	399	409
RPMI 5 mM glucose + 10% FBS	404	327	357
RPMI 5 mM glucose + 10% dialyzed FBS	406	341	326

cell viability [%]
Settings	NOMO1 [4]	P12-Ichikawa [5]	SEM cells [6]
HPLM + 10% dialyzed FBS, 0.000781 µM	82.8	95.5	82.5
HPLM + 10% dialyzed FBS, 0.00234 µM	89.3	103	97.1
HPLM + 10% dialyzed FBS, 0.00702 µM	106	96.9	101
HPLM + 10% dialyzed FBS, 0.0211 µM	96.8	99.9	96.8
HPLM + 10% dialyzed FBS, 0.0632 µM	95	93.5	85.3
HPLM + 10% dialyzed FBS, 0.19 µM	98.5	102	89
HPLM + 10% dialyzed FBS, 0.569 µM	94	93.5	92.7
HPLM + 10% dialyzed FBS, 1.71 µM	82.8	69.7	91
HPLM + 10% dialyzed FBS, 5.12 µM	70.4	67.7	78.9
HPLM + 10% dialyzed FBS, 15.4 µM	69.3	65.6	85.2
HPLM + 10% dialyzed FBS, 46.1 µM	10.3	2.52	3.39
RPMI 5 mM glucose + 10% FBS, 0.000781 µM	88.8	89	95.1
RPMI 5 mM glucose + 10% FBS, 0.00234 µM	95.3	94.9	99.1
RPMI 5 mM glucose + 10% FBS, 0.00702 µM	93.3	98.9	107
RPMI 5 mM glucose + 10% FBS, 0.0211 µM	99.2	95.9	95.6
RPMI 5 mM glucose + 10% FBS, 0.0632 µM	89	69.6	78.5
RPMI 5 mM glucose + 10% FBS, 0.19 µM	93.6	80	112
RPMI 5 mM glucose + 10% FBS, 0.569 µM	90.8	62.2	85.4
RPMI 5 mM glucose + 10% FBS, 1.71 µM	82.8	52.1	71
RPMI 5 mM glucose + 10% FBS, 5.12 µM	78.7	48.3	24.4
RPMI 5 mM glucose + 10% FBS, 15.4 µM	76.5	46.5	31
RPMI 5 mM glucose + 10% FBS, 46.1 µM	9.87	3.34	3.59
RPMI 5 mM glucose + 10% dialyzed FBS, 0.000781 µM	86.3	84.1	87.7
RPMI 5 mM glucose + 10% dialyzed FBS, 0.00234 µM	88.1	89.1	85.1
RPMI 5 mM glucose + 10% dialyzed FBS, 0.00702 µM	91	93.8	92.4
RPMI 5 mM glucose + 10% dialyzed FBS, 0.0211 µM	95.2	88.9	88.9
RPMI 5 mM glucose + 10% dialyzed FBS, 0.0632 µM	79.9	74.4	64.6
RPMI 5 mM glucose + 10% dialyzed FBS, 0.19 µM	98.1	79.1	79.2
RPMI 5 mM glucose + 10% dialyzed FBS, 0.569 µM	94.3	69.3	75.4
RPMI 5 mM glucose + 10% dialyzed FBS, 1.71 µM	88.5	62.1	63
RPMI 5 mM glucose + 10% dialyzed FBS, 5.12 µM	81.9	58.5	44.8
RPMI 5 mM glucose + 10% dialyzed FBS, 15.4 µM	81.4	60.9	46.2
RPMI 5 mM glucose + 10% dialyzed FBS, 46.1 µM	21.4	3.49	3.18
